Measured values taken from patent US20030133958A1, “External agent for the skin and whitening agent” (priority 2000, published 2003).

How the values were obtained:
[1] = tested on: B-16 melanoma cells; test: Test for evaluating melanogenesis-inhibitory function (cell-whitening degree) in cell culture systems using B-16 melanoma cells; format: cell-based; design: key to Whitening degree: ++: The whitening degree is higher than that observed when adding 450 μg/mL of vitamin C-magnesium phosphate.; +: The whitening degree is almost identical to that observed when adding 450 μ g/mL of vitamin C-magnesium phosphate.; ±: The whitening degree is not higher than that observed when adding 450 μg/mL of vitamin C-magnesium phosphate, but higher than that of the control.; −: The whitening degree is almost identical to that observed for the control
Text: (§1) The B-16 melanoma cell is one having an ability of producing melanin and therefore, the cells naturally grown by cell culture blacken. If a substance capable of inhibiting melanogenesis is present in the cell growth system during the cell growth, the blackening of the cells is inhibited and they relatively whiten. Accordingly, the whitening effect of each candidate substance can be evaluated on the basis of the degree of whiteness observed when adding a test sample relative to the degree of blackness observed for a control. […] To evaluate this cytotoxicity, the cell survival rate observed when adding a test sample to the system is compared with that observed for the control. Thus, the substantial whitening effect can be evaluated on the basis of the results of these cell-whitening test and cytotoxicity test.
An example of such a method for evaluating the melanogenesis-inhibitory function in a cell culture system using B-16 melanoma cells comprises, for instance, the steps of dispensing 2 ml/well of a culture medium to each well of a 6-well plate, inoculating a desired amount of melanoma cells to the medium, cultivating the cells by allowing the medium to stand at 37° C. and a carbon dioxide concentration of 5%. On the following day, a solution of a test sample is added and mixed with the culture medium to a predetermined concentration and the cell cultivation is continued. After 5 days from the initiation of the cultivation, the culture medium is replaced with fresh one and the solution of the test sample is again added thereto. On the next day, the medium is removed to thus recover the cells, followed by washing them with PBS (phosphate-buffered saline) and the determination of the degree of whiteness to thus evaluate the whitening effect of the test sample. In this connection, the melanogenesis-inhibitory function is evaluated by comparing the results thus obtained with the degree of whiteness observed when the same procedures are repeated using the vitamin C-magnesium phosphate as a known whitening agent instead of the test sample solution (positive control) and that observed when the procedures are repeated without addition of any test sample (control).
A culture medium was dispensed to wells of a 6-well plate (2 mL/well each), followed by inoculation of a desired amount of B-16 melanoma cells on each well, allowing the wells to stand at 37° C. and 5% CO2 to thus cultivate the cells. On the day subsequent thereto, a sample solution prepared was added to the wells with stirring and the cultivation was continued. The culture medium was replaced with fresh one on the 5th day from the initiation of the cultivation and the sample solution was again added to the wells. On the next day, the culture medium was removed to recover the cells, followed by washing them with PBS (phosphate buffered physiological saline) and then evaluation of the cell-whitening degree In this respect, the melanogenesis-inhibitory function was evaluated by comparing the cell-whitening degree thus obtained with that observed when the same procedures used above were repeated except that vitamin C-magnesium phosphate as a known whitening agent (positive control) was substituted for the sample solution used above and that observed when the same procedures used above were repeated except that any sample was not added (control), according to the following evaluation criteria.
The evaluation criteria for the cell-whitening degree are as follows: […]

[2] = tested on: B-16 melanoma cells; test: Cell-survival rate (cytotoxicity) in B-16 melanoma cell culture; format: cell-based
Text: as §1
The cell-survival rate at each added sample concentration can be determined according to the following formula
Cell-Survival Rate (%)=(A/B)×100
Wherein A represents the viable cell count observed for the system to which a sample is added and B represents the number of cells observed for the control system.

[3] = concentration 2 ppm, B-16 melanoma cells
[4] = concentration 4 ppm, B-16 melanoma cells
[5] = concentration 6 ppm, B-16 melanoma cells
[6] = concentration 8 ppm, B-16 melanoma cells
[7] = concentration 10 ppm, B-16 melanoma cells
[8] = concentration 15 ppm, B-16 melanoma cells
[9] = concentration 25 ppm, B-16 melanoma cells
[10] = concentration 50 ppm, B-16 melanoma cells
[11] = concentration 100 ppm, B-16 melanoma cells
[12] = concentration 200 ppm, B-16 melanoma cells
[13] = concentration 300 ppm, B-16 melanoma cells
[14] = concentration 400 ppm, B-16 melanoma cells

| Compound | Whitening degree [1, 3] | Whitening degree [1, 4] | Whitening degree [1, 5] | Whitening degree [1, 6] | Whitening degree [1, 7] | Whitening degree [1, 8] | Whitening degree [1, 9] | Whitening degree [1, 10] | other results |
| --- | --- | --- | --- | --- | --- | --- | --- | --- | --- |
| CC(=O)OCC12CCC(C)(C)CC1C1=CCC3C4(C)CCC(OC(C)=O)C(C)(C)C4CCC3(C)C1(C)CC2 (centres unmarked) [Compound of Synthesis 5, 3,28-O-Di-Acetyl-Erythrodiol] | ± | ± | ± | ± | ± | ± | + | + |  |
| CC[Si](CC)(CC)OC(=O)[C@]12CCC(C)(C)C[C@H]1C1=CC[C@@H]3[C@@]4(C)C[C@@H](O[Si](CC)(CC)CC)[C@H](O[Si](CC)(CC)CC)C(C)(C)[C@@H]4CC[C@@]3(C)[C@]1(C)CC2 [Compound of Synthesis 3, Triethylsilyl Ester of 2,3-O-Di-Triethylsilyl-Maslinic Acid] | − | ± | ± | + | + | + | + | + | Cell-Survival Rate [2, 3]: 100%; Cell-Survival Rate [2, 4]: 100%; Cell-Survival Rate [2, 5]: 100%; Cell-Survival Rate [2, 6]: 100%; Cell-Survival Rate [2, 7]: 100%; Cell-Survival Rate [2, 8]: 100%; Cell-Survival Rate [2, 9]: 100%; Cell-Survival Rate [2, 10]: 94% |
| CC(=O)O[C@@H]1C[C@]2(C)[C@H]3CC=C4[C@@H]5CC(C)(C)CC[C@]5(C(=O)O)CC[C@@]4(C)[C@]3(C)CC[C@H]2C(C)(C)[C@H]1OC(C)=O [Compound of Synthesis 2, 2,3-O-Di-Acetyl-Maslinic Acid] | ± | ± | + | ++ | ++ | ++ |  |  |  |
| C=C(C)[C@@H]1CC[C@]2(COC(C)=O)CC[C@]3(C)[C@H](CC[C@@H]4[C@@]5(C)CC[C@H](OC(C)=O)C(C)(C)[C@@H]5CC[C@]43C)[C@@H]12 [Compound of Synthesis 8, 3,28-O-Di-Acetyl-Betulin] | − | − | ± | ± | ± | + | + | + |  |
| C[C@H]1[C@H](C)CC[C@]2(C)CC[C@]3(C)C(=CC[C@@H]4[C@@]5(C)CC[C@H](O)C(C)(C)[C@@H]5CC[C@]43C)[C@H]12 [α-amyrin, reference compound] |  |  |  |  |  |  |  |  | whitening effect (melanogenesis-inhibitory function), in words [1]: never show any whitening effect |
| CC(=O)OC[C@]12CC[C@@H](C)[C@H](C)[C@H]1C1=CC[C@@H]3[C@@]4(C)CC[C@H](OC(C)=O)C(C)(C)[C@@H]4CC[C@@]3(C)[C@]1(C)CC2 [Compound of Synthesis 6, 3,28-O-Di-Acetyl-Uvaol] | − | − | − | ± | + | + | + | + |  |
| CC1(C)CC[C@]2(C(=O)O)CC[C@]3(C)C(=CC[C@@H]4[C@@]5(C)C[C@@H](O)[C@H](O)C(C)(C)[C@@H]5CC[C@]43C)[C@@H]2C1 [Purified maslinic acid 1, maslinic acid] | ± | + | ++ | ++ | ++ |  |  |  | whitening effect, times that observed for vitamin C-magnesium phosphate ([1]; from Table 1, positive control vitamin C-magnesium phosphate 450 ppm): about 110 times; added concentration at which the whitening effect is almost identical to that of the positive control ([1]; positive control vitamin C-magnesium phosphate 450 ppm, B-16 melanoma cells): 4 ppm; Cell-Survival Rate [2, 3]: 100%; Cell-Survival Rate [2, 4]: 100%; Cell-Survival Rate [2, 5]: 100%; Cell-Survival Rate [2, 6]: 79%; Cell-Survival Rate [2, 7]: 57% |
| OC[C@H]1O[C@@H](Oc2ccc(O)cc2)[C@H](O)[C@@H](O)[C@@H]1O [Arbutin, reference compound] |  |  |  |  | − | − | − | ± | Whitening degree [1, 11]: ±; Whitening degree [1, 12]: +; Whitening degree [1, 13]: ++; Whitening degree [1, 14]: ++; Cell-Survival Rate ([2]; mouse, 10 ppm): 100%; Cell-Survival Rate ([2]; mouse, 15 ppm): 100%; Cell-Survival Rate ([2]; mouse, 25 ppm): 100%; Cell-Survival Rate ([2]; mouse, 50 ppm): 86%; Cell-Survival Rate ([2]; mouse, 100 ppm): 69%; Cell-Survival Rate ([2]; mouse, 200 ppm): 56%; Cell-Survival Rate ([2]; mouse, 300 ppm): 41%; Cell-Survival Rate ([2]; mouse, 450 ppm): 16% |
| CC1(C)CC[C@]2(C(=O)O)CC[C@]3(C)C(=CC[C@@H]4[C@@]5(C)CC[C@H](O)C(C)(C)[C@@H]5CC[C@]43C)[C@@H]2C1 [oleanolic acid, reference compound] |  |  |  |  |  |  |  |  | whitening effect (melanogenesis-inhibitory function), in words [1]: never show any whitening effect |
| CC1(C)CC[C@]2(C)CC[C@]3(C)C(=CC[C@@H]4[C@@]5(C)CC[C@H](O)C(C)(C)[C@@H]5CC[C@]43C)[C@@H]2C1 [β-amyrin, reference compound] |  |  |  |  |  |  |  |  | whitening effect (melanogenesis-inhibitory function), in words [1]: never show any whitening effect |
| Ethyl Ester of 2,3-O-Di-Stearoyl-Maslinic Acid [Compound of Synthesis 4] | ± | ± | + | ++ | ++ | ++ |  |  |  |
| O=c1cc(CO)occ1O [Kojic Acid, reference compound] |  |  |  |  | − | − | − | ± | Whitening degree [1, 11]: ±; Whitening degree [1, 12]: +; Whitening degree [1, 13]: ++; Whitening degree [1, 14]: ++; Cell-Survival Rate ([2]; mouse, 10 ppm): 100%; Cell-Survival Rate ([2]; mouse, 15 ppm): 100%; Cell-Survival Rate ([2]; mouse, 25 ppm): 100%; Cell-Survival Rate ([2]; mouse, 50 ppm): 100%; Cell-Survival Rate ([2]; mouse, 100 ppm): 100%; Cell-Survival Rate ([2]; mouse, 200 ppm): 93%; Cell-Survival Rate ([2]; mouse, 300 ppm): 80%; Cell-Survival Rate ([2]; mouse, 450 ppm): 66% |
| CCOC(=O)[C@]12CCC(C)(C)C[C@H]1C1=CC[C@@H]3[C@@]4(C)C[C@@H](O)[C@H](O)C(C)(C)[C@@H]4CC[C@@]3(C)[C@]1(C)CC2 [Compound of Synthesis 1, Ethyl Ester of Maslinic Acid] | ± | + | ++ | ++ | ++ |  |  |  |  |
| C=C(C)[C@@H]1CC[C@]2(C(=O)OCC)CC[C@]3(C)[C@H](CC[C@@H]4[C@@]5(C)CC[C@H](O)C(C)(C)[C@@H]5CC[C@]43C)[C@@H]12 [Compound of Synthesis 7, Ethyl Ester of Betulinic Acid] | − | ± | ± | ± | + | + | + | + |  |
| C=C(C)[C@@H]1CC[C@]2(C)CC[C@]3(C)[C@H](CC[C@@H]4[C@@]5(C)CC[C@H](O)C(C)(C)[C@@H]5CC[C@]43C)[C@@H]12 [lupeol, reference compound] |  |  |  |  |  |  |  |  | whitening effect (melanogenesis-inhibitory function), in words [1]: never show any whitening effect |
